target: T1, Enoyl-[acyl-carrier-protein] reductase [NADH] (Mycobacterium tuberculosis) (UniProt P9WGR1); assay: Inhibition of Mycobacterium tuberculosis InhA using octenoyl-CoA as substrate assessed as decrease in NADH consumption at 40 uM measured for 10 mins relative to control; details: not given
T1 sequence (whole entry): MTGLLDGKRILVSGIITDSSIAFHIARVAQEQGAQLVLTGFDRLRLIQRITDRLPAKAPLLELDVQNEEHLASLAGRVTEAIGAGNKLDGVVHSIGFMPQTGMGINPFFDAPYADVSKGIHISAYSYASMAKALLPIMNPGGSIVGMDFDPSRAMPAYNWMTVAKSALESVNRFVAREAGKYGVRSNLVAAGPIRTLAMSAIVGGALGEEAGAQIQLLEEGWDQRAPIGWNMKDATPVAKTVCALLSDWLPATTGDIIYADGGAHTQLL

Row | SMILES | inhibition
1 | O=C(c1ccc(-c2ccccc2)cc1)N1CCN(Cc2ccccc2)CC1 | 27%
2 | O=C(Cc1ccccc1F)NCCC1=CCCCC1 | 56%
3 | FC(F)(F)c1ccnc(-n2cc(-c3ccc4ccccc4n3)cn2)n1 | 16%
4 | CN(Cc1ccco1)C(=O)c1ccc(-c2ccccc2)cc1 | 29%
5 | O=C(Cc1ccccc1F)NCCO | 34%
6 | O=C(c1ccc2[nH]ccc2c1)N1CCN(c2ccccc2)CC1 | 73%
7 | O=C(Cc1ccccc1F)NCCc1c[nH]c2ccccc12 | 47%
8 | O=C(c1ccc2[nH]ccc2c1)N1CCN(c2ccccn2)CC1 | 36%
9 | O=C(c1cccnc1)c1ccc2[nH]ccc2c1 | 36%
10 | O=C(c1ccc(-c2ccccc2)cc1)N1CCc2ccccc2C1 | 27%
11 | O=C(CCCc1c[nH]c2ccccc12)Nc1ccc(N2CCCC2)cc1 | 28%
12 | COc1ccccc1N1CCN(C(=O)c2ccc3[nH]ccc3c2)CC1 | 78%
13 | O=C(c1ccc(F)cc1)C1CCN(C(=O)c2ccc3[nH]ccc3c2)CC1 | 84%
14 | O=C(Cc1ccccc1F)NCCc1ccccc1 | 45%
15 | COc1ccc(-c2cnn(-c3nccc(C(F)(F)F)n3)c2)cc1 | 4%
16 | FC(F)(F)c1ccnc(-n2cc(-c3ccncn3)cn2)n1 | 36%
17 | COc1ccc(CCNC(=O)Cc2ccccc2F)cc1 | 63%
18 | FC(F)(F)c1ccnc(-n2cc(-c3cnccn3)cn2)n1 | 9%
19 | COc1cc2c(cc1OC)CN(C(=O)c1ccc3[nH]ccc3c1)CC2 | 86%
20 | O=C(c1ccc2[nH]ccc2c1)N1CCN(Cc2ccccc2)CC1 | 62%
21 | O=C(c1ccc2[nH]ccc2c1)N1CCN(Cc2ccc3c(c2)OCO3)CC1 | 51%
22 | CC1CN(C(=O)c2ccc3[nH]ccc3c2)CC(C)O1 (stereo unspecified) | 47%
23 | O=C(c1ccc2[nH]ccc2c1)N1CCc2ccccc2C1 | 86%
24 | CN(Cc1ccccc1)C(=O)c1ccc(-c2ccccc2)cc1 | 44%

Row | SMILES | inhibition
25 | O=C(CCCc1c[nH]c2ccccc12)NCc1ccc2c(c1)OCO2 | 37%
26 | FC(F)(F)c1ccnc(-n2cc(-c3cnc4ccccc4n3)cn2)n1 | 36%
27 | O=C(c1ccc2[nH]ccc2c1)N1CCN(C(c2ccccc2)c2ccccc2)CC1 | 106%
28 | O=C(Nc1ccc2ccccc2n1)c1ccc2[nH]ccc2c1 | 16%
29 | O=[N+]([O-])c1cc(Cl)ccc1-c1cnn(-c2nccc(C(F)(F)F)n2)c1 | 82%
30 | Cc1c(C)c(C)c(C(=O)C2CCN(C(=O)c3ccc4[nH]ccc4c3)CC2)c(C)c1C | 78%
31 | O=C(c1ccc2[nH]ccc2c1)N1CCN(c2ccc(F)cc2)CC1 | 53%
32 | FC(F)(F)c1ccnc(-n2cc(-c3ccnc4ccccc34)cn2)n1 | 9%
33 | FC(F)(F)c1ccnc(-n2cc(-c3ccc(Cl)cc3)cn2)n1 | 8%
34 | O=C(Cc1ccccc1F)NCCc1cccc(Cl)c1 | 84%
35 | FC(F)(F)c1ccnc(-n2cc(-c3nc4ccccc4[nH]3)cn2)n1 | 36%
36 | CS(=O)(=O)c1ccc(-c2cnn(-c3nccc(C(F)(F)F)n3)c2)c([N+](=O)[O-])c1 | 10%
37 | CC(C)C1C2CCC(NC(=O)CCCc3c[nH]c4ccccc34)C1C2 (stereo unspecified) | 34%
38 | CC(C)=CCC/C(C)=C/CNC(=O)CCCc1c[nH]c2ccccc12 | 51%
39 | CN(CCc1ccccc1)C(=O)c1ccc(-c2ccccc2)cc1 | 32%
40 | FC(F)(F)c1ccnc(-n2cc(-c3cccnc3)cn2)n1 | 36%
41 | COc1cc(CCNC(=O)CCCc2c[nH]c3ccccc23)cc(OC)c1 | 21%
42 | CC(C)=CCC/C(C)=C/CNC(=O)CCc1c[nH]c2ccccc12 | 73%
43 | O=C(Cc1ccccc1F)NCc1cccc(Cl)c1 | 75%
44 | O=C(Cc1ccccc1F)NCCC(c1ccccc1)c1ccccc1 | 63%
45 | O=[N+]([O-])c1ccccc1-c1cnn(-c2nccc(C(F)(F)F)n2)c1 | 14%
46 | CC(C)C1C2CCC(NC(=O)CCc3c[nH]c4ccccc34)C1C2 (stereo unspecified) | 28%
47 | COc1ccc([N+](=O)[O-])c(-c2cnn(-c3nccc(C(F)(F)F)n3)c2)c1 | 17%

system: not listed separately; assay: Cytotoxicity against mouse embryonic stem cells; type: cell-based; details: embryonic stem cell

Row | SMILES | Activity
48 | O=C(c1ccc2[nH]ccc2c1)N1CCN(C2c3ccccc3-c3ccccc32)CC1 | 46 to 52 µM
49 | CCCC(=O)C1(c2ccccc2)CCN(C(=O)c2ccc3[nH]ccc3c2)CC1 | 46 to 50 µM
50 | CC(C)=CCC/C(C)=C/CNC(=O)CCc1c[nH]c2ccccc12 | 11 to 90 µM

system: not listed separately; assay: Cytotoxicity against human kidney cells; type: cell-based; details: not given

Row | SMILES | Activity
51 | O=C(c1ccc2[nH]ccc2c1)N1CCN(C2c3ccccc3-c3ccccc32)CC1 | 35 to 44 µM
52 | CCCC(=O)C1(c2ccccc2)CCN(C(=O)c2ccc3[nH]ccc3c2)CC1 | 23 to 48 µM
53 | CC(C)=CCC/C(C)=C/CNC(=O)CCc1c[nH]c2ccccc12 | 41 to 62 µM

system: not listed separately; assay: Cytotoxicity against human lung cells; type: cell-based; details: not given

Row | SMILES | Activity
54 | O=C(c1ccc2[nH]ccc2c1)N1CCN(C2c3ccccc3-c3ccccc32)CC1 | 24 to 48 µM
55 | CCCC(=O)C1(c2ccccc2)CCN(C(=O)c2ccc3[nH]ccc3c2)CC1 | 33 to 50 µM
56 | CC(C)=CCC/C(C)=C/CNC(=O)CCc1c[nH]c2ccccc12 | 11 to 48 µM
